Source: patent US20030008814A1, “Pseudomycin phosphate prodrugs” (priority 2002, published 2003)

Experiment: Tail vein toxicity
Format: in vivo
Details: male ICR mice, IV lateral tail vein, 20 mg/kg at 0, 24, 48 and 72 hours, monitored 7 days; in comparison to pseudomycin B
Method: Mice were treated intravenously (IV) through the lateral tail vein with 0.1 ml of testing compound (20 mg/kg) at 0, 24, 48 and 72 hours. Two mice were included in each group. Compounds were formulated in 5.0% dextrose and sterile water for injection. The mice were monitored for 7 days following the first treatment and observed closely for signs of irritation including erythema, swelling, discoloration, necrosis, tail loss and any other signs of adverse effects indicating toxicity.
The mice used in the study were outbred, male ICR mice having an average weight between 18-20 g (available from Harlan Sprangue Dawley, Indianapolis, Ind.

C/C=C1\NC(=O)[C@H]([C@H](C)O)NC(=O)[C@H](CCNC(=O)OCc2ccc(OP(=O)(OCc3ccccc3)OCc3ccccc3)cc2)NC(=O)[C@H](CCCCNC(=O)OCc2ccc(OP(=O)(OCc3ccccc3)OCc3ccccc3)cc2)NC(=O)[C@H](CC(=O)O)NC(=O)[C@@H](CCNC(=O)OCc2ccc(OP(=O)(OCc3ccccc3)OCc3ccccc3)cc2)NC(=O)[C@@H](NC(=O)CC(O)CCCCCCCCCCC)COC(=O)[C@H]([C@H](O)CCl)NC(=O)[C@H](C(O)C(=O)O)NC1=O (stereo partly shown) [Compound 1A-1]
tail vein toxicity: improvement in tail vein toxicity
